According to paper PMC5563081, “Modulating Protein-Protein Interactions of the Mitotic Polo-like Kinases to Target Mutant KRAS” (Cell Chemical Biology, 2017):
Read-outs that look alike come from different tables or passages of the source.

Key:
[1] = system: phospho-Ser10 histone H3; assay: Phospho-histone H3 (Ser10) in xenograft tumour lysates (Western blot); type: in vivo, mouse; settings: within 24 hr after single 200mg/kg oral dose, compared with vehicle
Method: Tumours were established by sub-cutaneous implantation of 2 x 10^6 HCT116 cells suspended in 50% Matrigel into the flanks of a cohort of mice. When a sufficient number of mice had developed tumours of approximately 100mm3, they were randomly assigned to three groups: Vehicle, 50mg/kg Poloppin-II or 200mg/kg Poloppin-II, with 10 mice per group. Mice were treated orally according to their treatment group once every three days. Tumour volume was measured three times per week with calipers. Body weight was measured three times per week. In addition to mice assigned to tumour volume efficacy arm of the study, 16 mice with established HCT116 xenografts were assigned to either Vehicle or 200mg/kg oral dosing groups, with 8 mice per group. 24 hours after a single dose, mice were euthanised, tumours removed, snap frozen and 30-50microgram of lysates were analysed by Western blotting on 4-12% Bis-Tris acrylamide gels, and transferred using the Invitrogen iBlot dry system. Phospho-Histone H3 was detected using Abcam antibody ab5176, beta-actin with Sigma antibody a5316. […] HRP was visualised with ECL-Plus (GE Healthcare).

[2] = Pharmacokinetic study, oral administration in mice; type: in vivo, mouse
Method: Mice were dosed orally with 10mg/kg Poloppin-II, and blood samples were taken from 3 mice per time point, and frozen until all samples were available. Plasma was prepared from each sample and Poloppin-II levels analysed by a pre-established methodology (UHPLC-TOF MS using electrospray ionisation).

[3] = system: Panc 02.03; assay: Cell viability (SRB), Panc 02.03; type: cell-based; settings: Homo sapiens, Panc 02.03, 72 h
Method: SW48 Parental, SW48 G12D, Panc-1, HPAF-II, Panc 02.03 and Panc 05.04 cell lines were seeded overnight at 5000 cells per well in a 96 well plate in recommended media (ATCC). Compounds were added the following day and viability was measured at 72h using the sulforhodamine B (SRB) colorimetric assay as follows. Cells were fixed by replacing media with 1% v/v Trichloroacetic Acid (TCA) (Sigma-Aldrich) at 4°C and incubated for 1h also at 4°C. Wells were washed thoroughly with copious amounts of deionised water before staining with Sulforhodamine B (SRB) (Sigma-Aldrich) solution (0.057% w/v in 1% v/v Acetic Acid (VWR)) for 30 min. Stain was aspirated and wells washed with several changes of 1% v/v Acetic Acid until unbound stain was removed, before air-drying. Bound stain was solubilized with 100μl / well 10mM Tris (pH 8.0) (Trizma Base (121.1) Sigma-Aldrich) with agitation for 10 min. Fluorescence intensity was recorded at Ex540nm / Em590nm using a BMG Pherastar Plus plate reader ([Vichai and Kirtikara, 2006]).
Pancreatic organoids were extracted and cultured as detailed above ([Boj et al., 2015]). In brief, pancreatic organoids were seeded at 600 cells per well in a 96 well plate and allowed to grow for 7 days with media replenishment on the 3rd day. Full-grown organoids were then treated with compounds for 72h and viability determined using CellTitre Glo 3D assay (Promega). For viability assays with c-MET siRNA, cells were reverse transfected in a 6 cm dish using Dharmafect 1 (GE Dharmacon) per manufacturer’s instructions. On the following day, cells were trypsinised and plated onto 96 well plates or 6 well plates. The 96 well plates were treated with a dose range of compounds or DMSO, and viability was determined via SRB colorimetric assay. […]
Cells were reverse-transfected with 50nM (SW48 parental, SW48 KRAS G12D and Panc-1) or 25nM (HeLa Flp-In T-REx parental cells) siRNA using Dharmafect (GE Dharmacon) as manufacturer’s recommendations. […] Viability was assessed after 72 hrs, with the SRB colorimetric assay. Knockdown efficiencies were determined by Western blot or RT-qPCR. […]

[4] = system: HCT116 wt; assay: Viability of drug-sensitive parental HCT116 cells; type: cell-based; settings: Homo sapiens, HCT-116, 72 h
Method: Viability is represented as percentage survival normalised to DMSO control. […] PCR reactions were carried out using Amplitaq Gold polymerase (Applied Biosystems N8080241) with a 25-cycle programme. […] Prepared samples were submitted for next generation sequencing using MiSeq Nano run with Nextera XT library preparation. Sequencing and subsequent bioinformatics were performed by Cambridge Genomic Services (University Of Cambridge).

[5] = system: HeLa-KRAS G12D; assay: GI50 for cell killing, HeLa-KRAS G12D; type: cell-based; settings: Homo sapiens
Method: Five x10^4 cells were seeded on each well of 4-well coverglass Lab-Tek chambers in a volume of 800 μl. HeLa-G12D cells were induced with Doxycycline (Dox) 24h before seeding and kept in Dox for the rest of the experiment.

| SMILES | phospho-Ser10 histone H3 expression in xenografts [1] | bioavailability ([2]; mouse, plasma, 10 mg/kg oral) | clearance ([2]; mouse, plasma, oral, 10 mg/kg, read-out: calculated clearance) | Vd ([2]; mouse, plasma, oral, 10 mg/kg, read-out: volume of distribution) | half-life ([2]; mouse, plasma, per oral, 10 mg/kg) | time for which plasma concentration >100 nM is maintained ([2]; single oral dose of 10 mg/kg) | in vivo plasma concentration maintained ([2]; single oral dose of 10 mg/kg, for >24 hr) | EC50 ([3]; read-out: EC50, % survival, Panc 02.03, All Stars control siRNA, 72 h) | EC50 ([3]; read-out: EC50, % survival, Panc 02.03, siMET, 72 h) | GI50 [4] | GI50 [5] |
| --- | --- | --- | --- | --- | --- | --- | --- | --- | --- | --- | --- |
| CN(C)CCNC(=O)c1ccc(-c2ccc(-c3ccc(Cl)cc3)n2-c2ccccc2C(F)(F)F)cc1 [Poloppin-II] | increased levels | > 90% | 17 mL/min/kg | 23 L/kg | 15 h | > 24 h | > 100 nM |  |  |  |  |
| O=C(O)CCc1ccc(-c2ccc(Br)cc2)n1-c1ccccc1C(F)(F)F [Poloppin] |  |  |  |  |  |  |  | 47.1 ± 1.03 µM | 8.7 ± 1.16 µM | 11.1 µM | 5 µM |
